Target: T1, human P2Y12 receptor (Homo sapiens, UniProt Q9H244)
T1 construct: expressed in transfected cells; host or cells: CHO cells
Assay: P2Y12 receptor binding assay
Details: CHO cells with recombinant expression of the human P2Y12 receptor; tritium-labeled 2-methyl-S-ADP; RT, 2 hours
Experimental: P2Y12 Receptor Binding Assay
Chinese Hamster Ovary (CHO) cells with recombinant expression of the human P2Y12 receptor were cultured in 24 well cell-culture plates. Cells were washed three times with binding buffer (50 mM Tris pH 7.4, 100 mM NaCl, 1 mM EDTA, 0.5% BSA). The cells were then incubated with 0.5 ml per well binding buffer containing tritium-labeled 2-methyl-thio-adenosine 5′-diphosphate (2-methyl-S-ADP) (between 100′000 and 300′000 dpm per well) and various concentrations of test compounds. After incubation at RT for 2 hours, cells were washed three times with binding buffer. Then, cells were solubilized by addition of 0.5 ml solubilization buffer (SDS, NaOH, EDTA). The content of each well was then transferred into beta-counter vials and 2.0 ml of Ultima Gold Scintillation liquid was added.

T1 sequence (Q9H244 whole entry): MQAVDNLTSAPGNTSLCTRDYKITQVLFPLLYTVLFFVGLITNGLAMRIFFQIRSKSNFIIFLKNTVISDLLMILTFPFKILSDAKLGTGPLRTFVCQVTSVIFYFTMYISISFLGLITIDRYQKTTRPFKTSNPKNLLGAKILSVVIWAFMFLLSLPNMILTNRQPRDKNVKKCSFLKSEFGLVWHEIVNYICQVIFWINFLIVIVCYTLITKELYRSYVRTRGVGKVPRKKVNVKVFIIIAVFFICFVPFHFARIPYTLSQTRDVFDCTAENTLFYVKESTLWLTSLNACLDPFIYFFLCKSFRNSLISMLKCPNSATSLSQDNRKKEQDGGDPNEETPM

Row | SMILES | IC50 [nM]
1 | CCOC(=O)N1CCN(C(=O)CNC(=O)c2csc(-c3ccccc3)n2)CC1 [Example 1, 4-{2-[(2-Phenyl-thiazole-4-carbonyl)-amino]-acetyl}-piperazine-1-carboxylic acid ethyl ester] | 9150
2 | CCOC(=O)N1CCN(C(=O)[C@H](CCC(=O)O)NC(=O)c2csc(-c3ccccc3)n2)CC1 [Example 2, 4-{(S)-4-Carboxy-2-[(2-phenyl-thiazole-4-carbonyl)-amino]-butyryl}-piperazine-1-carboxylic acid ethyl ester] | 246
3 | CCCCOC(=O)N1CCN(C(=O)[C@H](CCC(=O)O)NC(=O)c2csc(-c3ccccc3Oc3ccccc3)n2)CC1 [Example 3, 4-((S)-4-Carboxy-2-{[2-(2-phenoxy-phenyl)-thiazole-4-carbonyl]-amino}-butyryl)-piperazine-1-carboxylic acid butyl ester] | 1470
4 | CCCCOC(=O)N1CCN(C(=O)[C@H](CCC(=O)O)NC(=O)c2csc(-c3cccc(OC)c3)n2)CC1 [Example 4, 4-((S)-4-Carboxy-2-{[2-(3-methoxy-phenyl)-thiazole-4-carbonyl]-amino}-butyryl)-piperazine-1-carboxylic acid butyl ester] | 249
5 | CCCCOC(=O)N1CCN(C(=O)[C@H](CCC(=O)O)NC(=O)c2csc(-c3ccccc3OC)n2)CC1 [Example 5, 4-((S)-4-Carboxy-2-{[2-(2-methoxy-phenyl)-thiazole-4-carbonyl]-amino}-butyryl)-piperazine-1-carboxylic acid butyl ester] | 464
6 | CCCCOC(=O)N1CCN(C(=O)[C@H](CCC(=O)O)NC(=O)c2csc(-c3ccccc3C)n2)CC1 [Example 6, 4-{(S)-4-Carboxy-2-[(2-o-tolyl-thiazole-4-carbonyl)-amino]-butyryl}-piperazine-1-carboxylic acid butyl ester] | 334
7 | CCCCOC(=O)N1CCN(C(=O)[C@H](CCC(=O)O)NC(=O)c2csc(-c3ccccc3)n2)CC1 [Example 7, 4-{(S)-4-Carboxy-2-[(2-phenyl-thiazole-4-carbonyl)-amino]-butyryl}-piperazine-1-carboxylic acid butyl ester] | 16
8 | CCCCOC(=O)N1CCN(C(=O)[C@H](CP(=O)(OCC)OCC)NC(=O)c2csc(-c3ccccc3)n2)CC1 [Example 8, 4-{(R)-3-(Diethoxy-phosphoryl)-2-[(2-phenyl-thiazole-4-carbonyl)-amino]-propionyl}-piperazine-1-carboxylic acid butyl ester] | 502
9 | CCCCOC(=O)N1CCN(C(=O)[C@H](CP(=O)(O)O)NC(=O)c2csc(-c3ccccc3)n2)CC1 [Example 9, 4-{(R)-2-[(2-Phenyl-thiazole-4-carbonyl)-amino]-3-phosphono-propionyl}-piperazine-1-carboxylic acid butyl ester] | 2
10 | CCCCOC(=O)N1CCN(C(=O)[C@H](Cc2ccc(P(=O)(OCC)OCC)cc2)NC(=O)c2csc(-c3ccccc3)n2)CC1 [Example 10, 4-{(S)-3-[4-(Diethoxy-phosphoryl)-phenyl]-2-[(2-phenyl-thiazole-4-carbonyl)-amino]-propionyl}-piperazine-1-carboxylic acid butyl ester] | 635
11 | CCCCOC(=O)N1CCN(C(=O)[C@H](Cc2ccc(P(=O)(O)O)cc2)NC(=O)c2csc(-c3ccccc3)n2)CC1 [Example 11, 4-[(S)-2-[(2-Phenyl-thiazole-4-carbonyl)-amino]-3-(4-phosphono-phenyl)-propionyl]-piperazine-1-carboxylic acid butyl ester] | 1
12 | CCOC(=O)N1CCN(C(=O)[C@H](Cc2ccc(P(=O)(OCC)OCC)cc2)NC(=O)c2csc(-c3ccccc3)n2)CC1 [Example 12, 4-{(S)-3-[4-(Diethoxy-phosphoryl)-phenyl]-2-[(2-phenyl-thiazole-4-carbonyl)-amino]-propionyl}-piperazine-1-carboxylic acid ethyl ester] | 4940
13 | CCOC(=O)N1CCN(C(=O)[C@H](Cc2ccc(P(=O)(O)O)cc2)NC(=O)c2csc(-c3ccccc3)n2)CC1 [Example 13, 4-[(S)-2-[(2-Phenyl-thiazole-4-carbonyl)-amino]-3-(4-phosphono-phenyl)-propionyl]-piperazine-1-carboxylic acid ethyl ester] | 2
14 | CCCCOC(=O)N1CCN(C(=O)[C@H](CCC(=O)OC(C)(C)C)NC(=O)c2nc(-c3ccccc3)sc2Br)CC1 [Example 14, 4-{(S)-2-[(5-Bromo-2-phenyl-thiazole-4-carbonyl)-amino]-4-tert-butoxycarbonyl-butyryl}-piperazine-1-carboxylic acid butyl ester] | 1220
15 | CCCCOC(=O)N1CCN(C(=O)[C@H](CCC(=O)O)NC(=O)c2nc(-c3ccccc3)sc2Br)CC1 [Example 15, 4-{(S)-2-[(5-Bromo-2-phenyl-thiazole-4-carbonyl)-amino]-4-carboxy-butyryl}-piperazine-1-carboxylic acid butyl ester] | 41
16 | CCCCOC(=O)N1CCN(C(=O)[C@H](CCC(=O)O)NC(=O)c2nc(-c3ccccc3)sc2Cl)CC1 [Example 16, 4-{(S)-4-Carboxy-2-[(5-chloro-2-phenyl-thiazole-4-carbonyl)-amino]-butyryl}-piperazine-1-carboxylic acid butyl ester] | 7
17 | CCCCOC(=O)N1CCN(C(=O)[C@H](CCC(=O)O)NC(=O)c2nc(-c3ccccc3)sc2-c2ccccc2)CC1 [Example 17, 4-{(S)-4-Carboxy-2-[(2,5-diphenyl-thiazole-4-carbonyl)-amino]-butyryl}-piperazine-1-carboxylic acid butyl ester] | 43
18 | CCCCOC(=O)N1CCN(C(=O)[C@H](CCC(=O)O)NC(=O)c2nc(-c3ccccc3)sc2[C@H]2C[C@@H]2COC)CC1 [Example 18, 4-((S)-4-Carboxy-2-{[5-((1S,2S)-2-methoxymethyl-cyclopropyl)-2-phenyl-thiazole-4-carbonyl]-amino}-butyryl)-piperazine-1-carboxylic acid butyl ester] | 11
19 | CCCCOC(=O)N1CCN(C(=O)[C@H](CCC(=O)O)NC(=O)c2nc(-c3ccccc3)sc2/C=C/C(=O)O)CC1 [Example 19, 4-((S)-4-Carboxy-2-{[5-((E)-2-carboxy-vinyl)-2-phenyl-thiazole-4-carbonyl]-amino}-butyryl)-piperazine-1-carboxylic acid butyl ester] | 6
20 | CCCCOC(=O)N1CCN(C(=O)[C@H](CCC(=O)O)NC(=O)c2nc(-c3ccccc3)sc2CCC(=O)O)CC1 [Example 20, 4-((S)-4-Carboxy-2-{[5-(2-carboxy-ethyl)-2-phenyl-thiazole-4-carbonyl]-amino}-butyryl)-piperazine-1-carboxylic acid butyl ester] | 13
21 | CCCCOC(=O)N1CCN(C(=O)[C@H](CCC(=O)O)NC(=O)c2nc(-c3ccccc3)sc2/C=C/COC)CC1 [Example 21, 4-((S)-4-Carboxy-2-{[5-((E)-3-methoxy-propenyl)-2-phenyl-thiazole-4-carbonyl]-amino}-butyryl)-piperazine-1-carboxylic acid butyl ester] | 19
22 | CCCCOC(=O)N1CCN(C(=O)[C@H](CCC(=O)O)NC(=O)c2nc(-c3ccccc3)sc2CCCOC)CC1 [Example 22, 4-((S)-4-Carboxy-2-{[5-(3-methoxy-propyl)-2-phenyl-thiazole-4-carbonyl]-amino}-butyryl)-piperazine-1-carboxylic acid butyl ester] | 28
23 | CCCCOC(=O)N1CCN(C(=O)[C@H](CCC(=O)O)NC(=O)c2nc(-c3ccccc3)sc2N2CCOCC2)CC1 [Example 23, 4-{(S)-4-Carboxy-2-[(5-morpholin-4-yl-2-phenyl-thiazole-4-carbonyl)-amino]-butyryl}-piperazine-1-carboxylic acid butyl ester] | 39
24 | CCCCOC(=O)N1CCN(C(=O)[C@H](CCC(=O)O)NC(=O)c2nc(-c3ccccc3)sc2N2CCCC2)CC1 [Example 24, 4-{(S)-4-Carboxy-2-[(2-phenyl-5-pyrrolidin-1-yl-thiazole-4-carbonyl)-amino]-butyryl}-piperazine-1-carboxylic acid butyl ester] | 7
25 | CCCCOC(=O)N1CCN(C(=O)[C@H](CCC(=O)O)NC(=O)c2nc(-c3ccccc3)sc2N2CC[C@H](OC)C2)CC1 [Example 25, 4-((S)-4-Carboxy-2-{[5-((S)-3-methoxy-pyrrolidin-1-yl)-2-phenyl-thiazole-4-carbonyl]-amino}-butyryl)-piperazine-1-carboxylic acid butyl ester] | 3
26 | CCCCOC(=O)N1CCN(C(=O)CNC(=O)c2csc(-c3ccccc3)n2)CC1 [Example 26, 4-{2-[(2-Phenyl-thiazole-4-carbonyl)-amino]-acetyl}-piperazine-1-carboxylic acid butyl ester] | 94
27 | CCCCOC(=O)N1CCN(C(=O)CNC(=O)c2nc(-c3ccccc3)sc2NCCCO)CC1 [Example 27, 4-(2-{[5-(3-Hydroxy-propylamino)-2-phenyl-thiazole-4-carbonyl]-amino}-acetyl)-piperazine-1-carboxylic acid butyl ester] | 34
28 | CCCCOC(=O)N1CCN(C(=O)CNC(=O)c2nc(-c3ccccc3)sc2NCCCOC)CC1 [Example 28, 4-(2-{[5-(3-Methoxy-propylamino)-2-phenyl-thiazole-4-carbonyl]-amino}-acetyl)-piperazine-1-carboxylic acid butyl ester] | 47
29 | CCCCOC(=O)N1CCN(C(=O)CNC(=O)c2nc(-c3ccccc3)sc2-c2cccc(F)c2)CC1 [Example 29, 4-(2-{[5-(3-Fluoro-phenyl)-2-phenyl-thiazole-4-carbonyl]-amino}-acetyl)-piperazine-1-carboxylic acid butyl ester] | 525
